# Reference: ChEMBL document CHEMBL1201861, “Genomics of Drug Sensitity in Cancer screening data, Wellcome Trust Sanger Institute”
# pIC50: −log10 of the molar value.
# Columns and labels:
# Assay in all cases: cells
# Conditions in all cases: Homo sapiens
# [1] = test system: C8166; format: functional, cell-based;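 note: growth inhibition of human C8166 cells measured by a cell viability assay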
# Description: SANGER: Inhibition of human C8166 cell growth in a cell viability assay.
# [2] = test system: NCI-H720; format: functional, cell-based;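 note: growth inhibition of human NCI-H720 cells determined by a cell viability assay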
# Description: SANGER: Inhibition of human NCI-H720 cell growth in a cell viability assay.
# [3] = test system: SK-N-DZ; format: functional, cell-based;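 note: growth inhibition of the cancer cell line, read out through a viability assay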
# Description: SANGER: Inhibition of human SK-N-DZ cell growth in a cell viability assay.
# [4] = test system: EW-24; format: functional, cell-based;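 note: human EW-24 cancer cell line, growth inhibition read out via a cell viability assay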
# Description: SANGER: Inhibition of human EW-24 cell growth in a cell viability assay.
# [5] = test system: BB65-RCC; format: functional, cell-based;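 note: growth inhibition of the cell line, measured with a cell viability assay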
# Description: SANGER: Inhibition of human BB65-RCC cell growth in a cell viability assay.
# [6] = test system: A3-KAW; format: functional, cell-based;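 note: growth inhibition of human A3-KAW cells, read out with a cell viability assay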
# Description: SANGER: Inhibition of human A3-KAW cell growth in a cell viability assay.
# [7] = test system: NCI-H446; format: functional, cell-based;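 note: growth inhibition of NCI-H446 cells determined by a cell viability assay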
# Description: SANGER: Inhibition of human NCI-H446 cell growth in a cell viability assay.
# [8] = test system: MLMA; format: functional, cell-based;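 note: growth inhibition of MLMA cells (human), determined through a cell viability readout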
# Description: SANGER: Inhibition of human MLMA cell growth in a cell viability assay.
# [9] = test system: A704; format: functional, cell-based;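 note: growth inhibition of human A704 cells, read out with a cell viability assay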
# Description: SANGER: Inhibition of human A704 cell growth in a cell viability assay.
# [10] = test system: SF-126; format: functional, cell-based;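 note: growth inhibition of human SF126 cells, read out with a cell viability assay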
# Description: SANGER: Inhibition of human SF126 cell growth in a cell viability assay.
# [11] = test system: EM-2; format: functional, cell-based;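 note: growth inhibition of EM-2 cells, read out with a cell viability assay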
# Description: SANGER: Inhibition of human EM-2 cell growth in a cell viability assay.
# [12] = test system: HEL; format: functional, cell-based;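 note: growth inhibition of HEL cells, read out with a cell viability assay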
# Description: SANGER: Inhibition of human HEL cell growth in a cell viability assay.
# [13] = test system: DMS-114; format: functional, cell-based
# [14] = test system: NCI-H82; format: functional, cell-based;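 note: growth inhibition of NCI-H82 cells, measured with a cell viability readout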
# Description: SANGER: Inhibition of human NCI-H82 cell growth in a cell viability assay.
# [15] = test system: NB13; format: functional, cell-based;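 note: cell viability readout measuring growth inhibition of human NB13 cells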
# Description: SANGER: Inhibition of human NB13 cell growth in a cell viability assay.
# [16] = test system: RCC10RGB; format: functional, cell-based;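 note: growth inhibition of human RCC10RGB cells, read out by a cell viability assay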
# Description: SANGER: Inhibition of human RCC10RGB cell growth in a cell viability assay.
# [17] = test system: GCIY; format: functional, cell-based;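 note: growth inhibition of the human GCIY cell line, read out by a cell viability assay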
# Description: SANGER: Inhibition of human GCIY cell growth in a cell viability assay.
# [18] = test system: MZ7-mel; format: functional, cell-based;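 note: growth inhibition of human MZ7-mel cells, measured by a cell viability assay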
# Description: SANGER: Inhibition of human MZ7-mel cell growth in a cell viability assay.
# [19] = test system: TK-10; format: functional, cell-based;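 note: growth inhibition of TK-10 cells, read out in a cell viability assay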
# Description: SANGER: Inhibition of human TK10 cell growth in a cell viability assay.
# [20] = test system: DJM-1; format: functional, cell-based;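 note: growth inhibition of human DJM-1 cells, read out by a cell viability assay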
# Description: SANGER: Inhibition of human DJM-1 cell growth in a cell viability assay.
# [21] = test system: SK-MEL-2; format: functional, cell-based;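 note: growth inhibition of human SK-MEL-2 cells measured with a cell viability assay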
# Description: SANGER: Inhibition of human SK-MEL-2 cell growth in a cell viability assay.
# [22] = test system: L-363; format: functional, cell-based
# Description: SANGER: Inhibition of human L-363 cell growth in a cell viability assay.
# [23] = test system: MC116; format: functional, cell-based;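 note: growth inhibition of MC116 cells, read out with a cell viability assay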
# Description: SANGER: Inhibition of human MC116 cell growth in a cell viability assay.
# [24] = test system: LAMA-84; format: functional, cell-based;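 note: growth inhibition of LAMA-84 cells, read out with a cell viability assay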
# Description: SANGER: Inhibition of human LAMA-84 cell growth in a cell viability assay.
# [25] = test system: NB5; format: functional, cell-based;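 note: growth inhibition of NB5 cells, read out as cell viability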
# Description: SANGER: Inhibition of human NB5 cell growth in a cell viability assay.
# [26] = test system: MV4-11; format: functional, cell-based, MV-4-11;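 note: cell viability readout measuring growth inhibition of human MV-4-11 cells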
# Description: SANGER: Inhibition of human MV-4-11 cell growth in a cell viability assay.
# [27] = test system: HDLM-2; format: functional, cell-based;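 note: cell viability assay measuring suppression of HDLM-2 proliferation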
# Description: SANGER: Inhibition of human HDLM-2 cell growth in a cell viability assay.
# [28] = test system: HCC1187; format: functional, cell-based;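 note: growth inhibition of HCC1187 cells, read out with a cell viability assay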
# Description: SANGER: Inhibition of human HCC1187 cell growth in a cell viability assay.
# [29] = test system: no-10; format: functional, cell-based;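 note: growth inhibition of no-10 cells, read out with a cell viability assay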
# Description: SANGER: Inhibition of human no-10 cell growth in a cell viability assay.
# [30] = test system: Calu-6; format: functional, cell-based;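 note: growth of human Calu-6 cells, read out by a cell viability assay, IC50 marking inhibition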
# Description: SANGER: Inhibition of human Calu-6 cell growth in a cell viability assay.
# [31] = test system: DEL; format: functional, cell-based;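 note: growth inhibition of the human DEL cell line, read out with a cell viability assay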
# Description: SANGER: Inhibition of human DEL cell growth in a cell viability assay.
# [32] = test system: RPMI-8866; format: functional, cell-based
# Description: SANGER: Inhibition of human RPMI-8866 cell growth in a cell viability assay.
# [33] = test system: MS-1; format: functional, cell-based;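 note: growth inhibition of MS-1 cells, read out by cell viability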
# Description: SANGER: Inhibition of human MS-1 cell growth in a cell viability assay.
# [34] = test system: Becker; format: functional, cell-based;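 note: growth inhibition of Becker cells, read out with a cell viability assay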
# Description: SANGER: Inhibition of human Becker cell growth in a cell viability assay.
# [35] = test system: HC-1; format: functional, cell-based;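 note: growth inhibition of HC-1 cells measured by a cell viability assay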
# Description: SANGER: Inhibition of human HC-1 cell growth in a cell viability assay.
# [36] = test system: NCI-H23; format: functional, cell-based;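 note: cell viability assay measuring growth inhibition of NCI-H23 cells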
# Description: SANGER: Inhibition of human NCI-H23 cell growth in a cell viability assay.
# [37] = test system: GT3TKB; format: functional, cell-based;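 note: growth inhibition of the cell line, read out with a cell viability assay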
# Description: SANGER: Inhibition of human GT3TKB cell growth in a cell viability assay.
# [38] = test system: TE-12; format: functional, cell-based;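 note: growth inhibition of TE-12 cells, read out by a cell viability assay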
# Description: SANGER: Inhibition of human TE-12 cell growth in a cell viability assay.
# [39] = test system: LU-139; format: functional, cell-based
# Description: SANGER: Inhibition of human LU-139 cell growth in a cell viability assay.
# [40] = test system: NOS-1; format: functional, cell-based;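 note: growth inhibition of the human NOS-1 cell line, read out with a cell viability assay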
# Description: SANGER: Inhibition of human NOS-1 cell growth in a cell viability assay.
# [41] = test system: RXF 393; format: functional, cell-based;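 note: growth inhibition of human RXF 393 cells, read out with a cell viability assay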
# Description: SANGER: Inhibition of human RXF393 cell growth in a cell viability assay.
# [42] = test system: TE-11; format: functional, cell-based;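 note: growth inhibition of human TE-11 cells, read out by a cell viability assay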
# Description: SANGER: Inhibition of human TE-11 cell growth in a cell viability assay.
# [43] = test system: IST-MEL1; format: functional, cell-based;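 note: growth inhibition of the cell line, read out with a cell viability assay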
# Description: SANGER: Inhibition of human IST-MEL1 cell growth in a cell viability assay.
# [44] = test system: ES8; format: functional, cell-based;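 note: growth inhibition of human ES8 cells, read out with a cell viability assay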
# Description: SANGER: Inhibition of human ES8 cell growth in a cell viability assay.
# [45] = test system: A388; format: functional, cell-based;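 note: growth inhibition of human A388 cells, read out with a cell viability assay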
# Description: SANGER: Inhibition of human A388 cell growth in a cell viability assay.
# [46] = test system: KGN; format: functional, cell-based;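 note: growth inhibition of KGN cells, read out with a cell viability assay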
# Description: SANGER: Inhibition of human KGN cell growth in a cell viability assay.
# [47] = test system: ES3; format: functional, cell-based;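 note: growth inhibition of ES3 cells, read out with a cell viability assay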
# Description: SANGER: Inhibition of human ES3 cell growth in a cell viability assay.
# [48] = test system: NB69; format: functional, cell-based;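 note: growth inhibition of NB69 cells, determined by a cell viability assay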
# Description: SANGER: Inhibition of human NB69 cell growth in a cell viability assay.
# [49] = test system: NCI-H2126; format: functional, cell-based;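 note: growth inhibition of the cancer cell line, determined with a cell viability readout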
# Description: SANGER: Inhibition of human NCI-H2126 cell growth in a cell viability assay.
# [50] = test system: JVM-3; format: functional, cell-based;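 note: growth inhibition of human JVM-3 cells, read out with a cell viability assay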
# Description: SANGER: Inhibition of human JVM-3 cell growth in a cell viability assay.
# [51] = test system: D-502MG; format: functional, cell-based
# Description: SANGER: Inhibition of human D-502MG cell growth in a cell viability assay.
# [52] = test system: SNU1; format: functional, cell-based;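 note: growth inhibition of human NCI-SNU-1 cells, measured with a cell viability assay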
# Description: SANGER: Inhibition of human NCI-SNU-1 cell growth in a cell viability assay.
# [53] = test system: NCI-H747; format: functional, cell-based;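 note: growth inhibition of human NCI-H747 cells, read out by a cell viability assay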
# Description: SANGER: Inhibition of human NCI-H747 cell growth in a cell viability assay.
# [54] = test system: IA-LM; format: functional, cell-based;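 note: cell viability assay measuring growth inhibition of human IA-LM cells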
# Description: SANGER: Inhibition of human IA-LM cell growth in a cell viability assay.
# [55] = test system: KP-N-YS; format: functional, cell-based;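 note: cell viability assay measuring inhibition of cell line growth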
# Description: SANGER: Inhibition of human KP-N-YS cell growth in a cell viability assay.
# [56] = test system: MZ1-PC; format: functional, cell-based
# Description: SANGER: Inhibition of human MZ1-PC cell growth in a cell viability assay.
# [57] = test system: HCC2218; format: functional, cell-based
# Description: SANGER: Inhibition of human HCC2218 cell growth in a cell viability assay.
# [58] = test system: ES6; format: functional, cell-based
# Description: SANGER: Inhibition of human ES6 cell growth in a cell viability assay.
# [59] = test system: MHH-PREB-1; format: functional, cell-based
# Description: SANGER: Inhibition of human MHH-PREB-1 cell growth in a cell viability assay.
# [60] = test system: PSN1; format: functional, cell-based
# Description: SANGER: Inhibition of human PSN1 cell growth in a cell viability assay.
# [61] = test system: ES7; format: functional, cell-based
# Description: SANGER: Inhibition of human ES7 cell growth in a cell viability assay.
# [62] = test system: HOP-62; format: functional, cell-based
# Description: SANGER: Inhibition of human HOP-62 cell growth in a cell viability assay.
# [63] = test system: ES4; format: functional, cell-based
# Description: SANGER: Inhibition of human ES4 cell growth in a cell viability assay.
# [64] = test system: SBC-1; format: functional, cell-based
# Description: SANGER: Inhibition of human SBC-1 cell growth in a cell viability assay.
# [65] = test system: NCI-H1770; format: functional, cell-based
# Description: SANGER: Inhibition of human NCI-H1770 cell growth in a cell viability assay.
compound,measurement,setting,value
CCNc1cc(N[C@H]2CC[C@@H](O)CC2)nc(Nc2ccc3c(ccn3Cc3ccccc3)c2)n1,pIC50,[1],< 5.29
same,pIC50,[2],< 5.29
same,pIC50,[3],< 5.29
same,pIC50,[4],< 5.29
same,pIC50,[5],< 5.29
same,pIC50,[6],5.72
same,pIC50,[7],< 5.29
same,pIC50,[8],< 5.29
same,pIC50,[9],< 5.29
same,pIC50,[10],< 5.29
same,pIC50,[11],< 5.29
same,pIC50,[12],< 5.29
same,pIC50,[13],< 5.29
same,pIC50,[14],< 5.29
same,pIC50,[15],< 5.29
same,pIC50,[16],< 5.29
same,pIC50,[17],< 5.29
same,pIC50,[18],< 5.29
same,pIC50,[19],< 5.29
same,pIC50,[20],< 5.29
same,pIC50,[21],< 5.29
same,pIC50,[22],< 5.29
same,pIC50,[23],< 5.29
same,pIC50,[24],< 5.29
same,pIC50,[25],< 5.29
same,pIC50,[26],< 5.29
same,pIC50,[27],< 5.29
same,pIC50,[28],< 5.29
same,pIC50,[29],< 5.29
same,pIC50,[30],< 5.29
same,pIC50,[31],< 5.29
same,pIC50,[32],< 5.29
same,pIC50,[33],< 5.29
same,pIC50,[34],< 5.29
same,pIC50,[35],< 5.29
same,pIC50,[36],< 5.29
same,pIC50,[37],< 5.29
same,pIC50,[38],5.30
same,pIC50,[39],< 5.29
same,pIC50,[40],5.49
same,pIC50,[41],< 5.29
same,pIC50,[42],< 5.29
same,pIC50,[43],< 5.29
same,pIC50,[44],< 5.29
same,pIC50,[45],< 5.29
same,pIC50,[46],< 5.29
same,pIC50,[47],< 5.29
same,pIC50,[48],< 5.29
same,pIC50,[49],< 5.29
same,pIC50,[50],< 5.29
same,pIC50,[51],< 5.29
same,pIC50,[52],< 5.29
same,pIC50,[53],< 5.29
same,pIC50,[54],< 5.29
same,pIC50,[55],< 5.29
same,pIC50,[56],< 5.29
same,pIC50,[57],< 5.29
same,pIC50,[58],< 5.29
same,pIC50,[59],< 5.29
same,pIC50,[60],< 5.29
same,pIC50,[61],< 5.29
same,pIC50,[62],< 5.29
same,pIC50,[63],< 5.29
same,pIC50,[64],< 5.29
same,pIC50,[65],5.29
COc1cc(C)c(Sc2cnc(NC(=O)c3ccc(CNC(C)C(C)(C)C)cc3)s2)cc1C(=O)N1CCN(C(C)=O)CC1 (stereo not given),pIC50,[1],< 4.99
same,pIC50,[2],< 4.99
same,pIC50,[3],< 4.99
same,pIC50,[4],< 4.99
same,pIC50,[5],< 4.99
same,pIC50,[6],< 4.99
same,pIC50,[7],< 4.99
same,pIC50,[8],< 4.99
same,pIC50,[9],< 4.99
same,pIC50,[10],< 4.99
same,pIC50,[11],< 4.99
same,pIC50,[12],< 4.99
same,pIC50,[13],< 4.99
same,pIC50,[14],< 4.99
same,pIC50,[15],< 4.99
same,pIC50,[16],< 4.99
same,pIC50,[17],< 4.99
same,pIC50,[18],< 4.99
same,pIC50,[19],< 4.99
same,pIC50,[20],< 4.99
same,pIC50,[21],< 4.99
same,pIC50,[22],5.31
same,pIC50,[23],< 4.99
same,pIC50,[24],< 4.99
same,pIC50,[25],< 4.99
same,pIC50,[26],5.23
same,pIC50,[27],< 4.99
same,pIC50,[28],< 4.99
same,pIC50,[29],< 4.99
same,pIC50,[30],< 4.99
same,pIC50,[31],< 4.99
same,pIC50,[32],< 4.99
same,pIC50,[33],< 4.99
same,pIC50,[34],< 4.99
same,pIC50,[35],< 4.99
same,pIC50,[36],< 4.99
same,pIC50,[37],< 4.99
same,pIC50,[38],5.62
same,pIC50,[39],< 4.99
same,pIC50,[40],5.89
same,pIC50,[41],< 4.99
same,pIC50,[42],< 4.99
same,pIC50,[43],< 4.99
same,pIC50,[44],< 4.99
same,pIC50,[45],< 4.99
same,pIC50,[46],< 4.99
same,pIC50,[47],5.05
same,pIC50,[48],5.18
same,pIC50,[49],< 4.99
same,pIC50,[50],< 4.99
same,pIC50,[51],< 4.99
same,pIC50,[52],< 4.99
same,pIC50,[53],5.41
same,pIC50,[54],5.27
same,pIC50,[55],< 4.99
same,pIC50,[56],5.42
same,pIC50,[57],< 4.99
same,pIC50,[58],5.67
same,pIC50,[59],< 4.99
same,pIC50,[60],5.60
same,pIC50,[61],< 4.99
same,pIC50,[62],< 4.99
same,pIC50,[63],5.18
same,pIC50,[64],< 4.99
same,pIC50,[65],< 4.99
